Values after ≈ are worked out from the molar mass of the structure shown.
What was measured:
[1] = test system: Mycobacterium tuberculosis; experiment: Antitubercular activity against Mycobacterium tuberculosis H37Rv after 7 days by resazurin microtiter assay; format: functional; details: 168 h
[2] = Cytotoxicity against African green monkey Vero cells assessed as cell viability at 100 uM after 72 hrs by MTT assay relative to control; format: cell-based; details: chlorocebus sabaeus, read-out: Activity
[3] = target: DNA gyrase subunit A/DNA gyrase subunit B (Mycobacterium tuberculosis (strain ATCC 25618 / H37Rv), UniProt P9WG45+P9WG47); experiment: Inhibition of Mycobacterium tuberculosis DNA gyrase assessed as reduction in supercoiling of relaxed pBR322 DNA substrate after 30 mins by ethidium bromide staining based agarose gel electrophoresis method; format: protein-complex assay
DNA gyrase subunit A/DNA gyrase subunit B, sequence (P9WG45 whole entry): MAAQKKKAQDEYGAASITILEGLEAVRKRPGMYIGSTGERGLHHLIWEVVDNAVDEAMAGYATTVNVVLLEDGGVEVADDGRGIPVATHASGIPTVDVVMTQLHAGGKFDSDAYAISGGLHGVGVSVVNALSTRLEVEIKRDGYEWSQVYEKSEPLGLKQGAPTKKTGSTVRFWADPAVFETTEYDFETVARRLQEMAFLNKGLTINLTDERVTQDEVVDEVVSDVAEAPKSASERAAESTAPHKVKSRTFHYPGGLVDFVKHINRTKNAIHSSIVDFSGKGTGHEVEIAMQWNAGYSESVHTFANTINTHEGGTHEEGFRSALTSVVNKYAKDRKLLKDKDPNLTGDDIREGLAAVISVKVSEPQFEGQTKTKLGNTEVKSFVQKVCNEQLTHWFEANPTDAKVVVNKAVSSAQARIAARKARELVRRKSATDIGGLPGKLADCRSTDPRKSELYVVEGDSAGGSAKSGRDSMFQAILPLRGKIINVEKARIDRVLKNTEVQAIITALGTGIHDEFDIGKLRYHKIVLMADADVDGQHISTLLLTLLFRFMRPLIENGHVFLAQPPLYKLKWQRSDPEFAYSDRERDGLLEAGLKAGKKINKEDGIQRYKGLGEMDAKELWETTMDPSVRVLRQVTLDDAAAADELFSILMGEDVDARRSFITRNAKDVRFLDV
DNA gyrase subunit A/DNA gyrase subunit B, sequence (P9WG47 whole entry): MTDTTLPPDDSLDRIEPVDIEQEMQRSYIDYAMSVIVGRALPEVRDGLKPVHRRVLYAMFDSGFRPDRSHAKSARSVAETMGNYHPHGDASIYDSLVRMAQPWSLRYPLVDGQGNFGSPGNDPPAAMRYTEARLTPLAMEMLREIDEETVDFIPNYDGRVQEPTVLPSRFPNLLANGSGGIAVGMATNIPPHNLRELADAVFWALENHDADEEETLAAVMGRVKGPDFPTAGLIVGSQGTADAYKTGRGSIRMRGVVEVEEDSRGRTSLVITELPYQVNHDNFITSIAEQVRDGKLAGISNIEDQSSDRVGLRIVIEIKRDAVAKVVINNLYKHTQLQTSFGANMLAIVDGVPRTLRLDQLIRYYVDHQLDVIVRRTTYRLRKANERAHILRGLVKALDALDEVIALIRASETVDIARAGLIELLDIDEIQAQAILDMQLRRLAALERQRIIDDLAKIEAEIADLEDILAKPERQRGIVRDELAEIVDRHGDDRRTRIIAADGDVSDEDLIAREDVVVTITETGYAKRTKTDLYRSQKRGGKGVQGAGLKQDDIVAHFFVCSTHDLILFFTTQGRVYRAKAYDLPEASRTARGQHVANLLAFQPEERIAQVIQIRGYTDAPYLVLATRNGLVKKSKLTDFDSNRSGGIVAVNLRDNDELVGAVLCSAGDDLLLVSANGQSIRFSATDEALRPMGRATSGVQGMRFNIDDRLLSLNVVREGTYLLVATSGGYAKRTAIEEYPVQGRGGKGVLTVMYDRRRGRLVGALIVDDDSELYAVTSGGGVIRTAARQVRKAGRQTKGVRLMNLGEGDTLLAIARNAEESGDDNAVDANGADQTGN

Staphylococcus aureus = experiment: Antibacterial activity against Staphylococcus aureus ATCC 2913 after overnight incubation by broth dilution assay; format: functional
Candida tropicalis = experiment: Antifungal activity against Candida tropicalis after overnight incubation by broth dilution assay; format: functional
Escherichia coli = experiment: Antibacterial activity against Escherichia coli ATCC 15922 after overnight incubation by broth dilution assay; format: functional
Enterococcus faecalis = experiment: Antibacterial activity against Enterococcus faecalis ATCC 2491 after overnight incubation by broth dilution assay; format: functional
Candida albicans = experiment: Antifungal activity against Candida albicans after overnight incubation by broth dilution assay; format: functional
Salmonella typhimurium = experiment: Antibacterial activity against Salmonella typhimurium ATCC 14028 after overnight incubation by broth dilution assay; format: functional, Salmonella enterica subsp. enterica serovar Typhimurium; details: Salmonella enterica
[4] = test system: Mycobacterium tuberculosis; experiment: Antitubercular activity against Mycobacterium tuberculosis isolate 1535 after 7 days by resazurin microtiter assay; format: functional; details: isolate 1535, 168 h
[5] = test system: Mycobacterium tuberculosis; experiment: Antitubercular activity against Mycobacterium tuberculosis isolate 1777 after 7 days by resazurin microtiter assay; format: functional; details: isolate 1777, 168 h
[6] = test system: Mycobacterium tuberculosis; experiment: Antitubercular activity against Mycobacterium tuberculosis isolate 1567 after 7 days by resazurin microtiter assay; format: functional; details: isolate 1567, 168 h
[7] = test system: Mycobacterium tuberculosis; experiment: Antitubercular activity against Mycobacterium tuberculosis isolate 1657 after 7 days by resazurin microtiter assay; format: functional; details: isolate 1657, 168 h
[8] = test system: Mycobacterium tuberculosis; experiment: Antitubercular activity against Mycobacterium tuberculosis isolate 231 after 7 days by resazurin microtiter assay; format: functional; details: isolate 231, 168 h
[9] = test system: Mycobacterium tuberculosis; experiment: Antitubercular activity against Mycobacterium tuberculosis isolate 1574 after 7 days by resazurin microtiter assay; format: functional; details: isolate 1574, 168 h
[10] = test system: Mycobacterium tuberculosis; experiment: Antitubercular activity against Mycobacterium tuberculosis isolate 147 after 7 days by resazurin microtiter assay; format: functional; details: isolate 147, 168 h

Row | Compound | MIC [1] | viability at 72 h, 100 µM [2] | further results
1 | CCn1cc(C(=O)O)c(=O)c2cc(OC)c3nn(C)nc3c21 | > 100 µM | 94.2% | 
2 | COc1cc2c(=O)c(C(=O)O)c[nH]c2c2nnn(C)c12 | > 100 µM | 90.2% | IC50 [3]: 91.3 µM
3 | CCn1cc(C(=O)O)c(=O)c2cc(F)c3c(nnn3C)c21 | > 100 µM | 95.1% | 
4 | CCOC(=O)c1cnc2c(cc(OC)c3nnn(C)c32)c1OC | > 100 µM | 80.8% | 
5 | Cn1cc(C(=O)O)c(=O)c2cc([N+](=O)[O-])c3c(nnn3C)c21 | > 100 µM | 88.8% | 
6 | CCOc1c(C(=O)O)cnc2c1cc(OC)c1nnn(C)c12 | > 100 µM | 83.6% | 
7 | CCSc1cc2c(=O)c(C(=O)O)cn(C)c2c2nnn(C)c12 | 50.3 µM (≈ 16 µg/mL) | 87.7% | 
8 | Cn1cc(C(=O)O)c(=O)c2cc(F)c3c(nnn3C)c21 | 57.9 µM (≈ 16 µg/mL) | 81.2% | 
9 | CCn1cc(C(=O)O)c(=O)c2cc(OC)c3c(nnn3C)c21 | 52.9 µM (≈ 16 µg/mL) | 90.1% | 
10 | COC(=O)c1cn(C)c2c(ccc3c2nnn3C)c1=O | > 100 µM | 91.2% | 
11 | COc1cc2c(=O)c(C(=O)O)c[nH]c2c2c1nnn2C | > 100 µM | 92.9% | 
12 | CCOC(=O)c1cnc2c(cc(OC)c3nnn(C)c32)c1OCC | > 100 µM | 85.4% | 
13 | COc1c(C(=O)O)cnc2c1cc(OC)c1nnn(C)c12 | > 100 µM | 85.7% | 
14 | CCOc1cc2c(=O)c(C(=O)O)cn(C)c2c2nnn(C)c12 | 6.6 µM (≈ 2 µg/mL) | 94.3% | MIC (Staphylococcus aureus): > 100 µM; MIC (Candida tropicalis): > 100 µM; MIC (Escherichia coli): > 100 µM; IC50 [3]: 28.2 µM; MIC (Enterococcus faecalis): > 100 µM; MIC (Candida albicans): > 100 µM; MIC (Salmonella typhimurium): > 100 µM
15 | CCOc1cc2c(=O)c(C(=O)O)cn(CC)c2c2nnn(C)c12 | 25.3 µM (≈ 8 µg/mL) | 92.1% | 
16 | CCOC(=O)c1cn(C)c2c(cc(OC)c3c2nnn3C)c1=O | > 100 µM | 92% | 
17 | CCOC(=O)c1cn(CC)c2c(cc(OC)c3c2nnn3C)c1=O | > 100 µM | 84.4% | 
18 | COc1cc2c(=O)c(C(=O)O)cn(C)c2c2nnn(C)c12 | 6.9 µM (≈ 1.99 µg/mL) | 90.4% | MIC (Staphylococcus aureus): > 100 µM; MIC [4]: 16 µM (≈ 4.61 µg/mL); MIC [5]: 8 µM (≈ 2.31 µg/mL); MIC [6]: 32 µM (≈ 9.22 µg/mL); MIC (Candida tropicalis): > 100 µM; MIC [7]: 4 µM (≈ 1.15 µg/mL); MIC [8]: 4 µM (≈ 1.15 µg/mL); MIC (Escherichia coli): > 100 µM; MIC [9]: 32 µM (≈ 9.22 µg/mL); IC50 [3]: 27.6 µM; MIC (Enterococcus faecalis): > 100 µM; MIC (Candida albicans): > 100 µM; MIC (Salmonella typhimurium): > 100 µM; MIC [10]: 8 µM (≈ 2.31 µg/mL)
19 | CCOC(=O)c1cn(CC)c2c(cc(OC)c3nn(C)nc32)c1=O | > 100 µM | 79.3% | 
20 | CCOC(=O)c1cn(CC)c2c(cc(OCC)c3c2nnn3C)c1=O | > 100 µM | 95.1% | 
21 | COc1cc2c(=O)c(C(=O)O)cn(C)c2c2nn(C)nc12 | 27.8 µM (≈ 8.01 µg/mL) | 89.5% | 
22 | O=C(O)c1cn(C2CC2)c2cc(N3CCNCC3)c(F)cc2c1=O [CIPROFLOXACIN] | 1.5 µM (≈ 0.497 µg/mL) | 95.2% | 

Source: ChEMBL document CHEMBL4325868, “Design, synthesis and antitubercular activity of 4-alkoxy-triazoloquinolones able to inhibit the M. tuberculosis DNA gyrase” (Eur J Med Chem, 2019)
